Our source for the IC50 values is patent US9458170B2, “Compound of camptothecin and preparation and use thereof” (YULIANG LI, priority 2012, dated 2016).

SMILES strings stand for the structures. Where only a bound is given, the exact number is not on record here.

What all share (format): cell-based
Experiment [1] concerns human lung cancer A549 cells. The experiment can be described thus: Cell Titre Glo luminescent cell viability assay, A549. The conditions noted are these: 72 h, incubated 3 days, 0.3 nM~10 μM, 0.1% DMSO. Here is the method:
(§1) The human lung cancer A549 cells were cultured in DMEM medium (Gibco®) supplemented with 10% fetal bovine serum (Hyclone®), and human colon cancer SW620, HT-29 cells and human prostate cancer PC-3 cells were cultured in RPMI-1640 medium (Gibco®) supplemented with 10% fetal bovine serum (Hyclone®). The cells described above were cultured in 25 cm^2 or 75 cm^2 plastic cell culture flask (Corning®) filled with 95% air and 5% CO2 at 37° C., for 2˜3 passages per week. Cells were seeded in 96 well cell culture plates (Corning®) at a density of 1×10^3 cells/well (A549), 2×10^3 cells/well (SW620 and HT-29), 3×10^3 cells/well (PC-3), 195 μL/well, and cultured at 37° C., under 95% air and 5% CO2. After 24 h, compounds of this disclosure were added. All the compounds (dissolved in 100% DMSO) were serially diluted three times by 100% DMSO starting from 10 mM. 4 μL of the solution of each concentration was added to 96 μL serum free medium, respectively, and 5 μL diluted solution by medium was added to the culture plates seeded with the cancer cells. The final concentration of DMSO in culture medium was 0.1%, and the final concentration of the compound was 0.3 nM˜10 μM. The said cells were incubated at 37° C. for 3 days. 3 Days later, the viabilities of viable cells were measured by luminescent plate reader according to the reaction of ATP and luciferase (Cell Titre Glo® Luminescent Cell Viability Assay, Promega). This method can be used to evaluate effectiveness of the compounds according to their influences on the cell growth. The dose response curves were generated by the obtained data, and IC50 values were calculated with the program Prism.

The subject of experiment [2] is human colon cancer SW620 cells. Put plainly: Cell Titre Glo luminescent cell viability assay, SW620. The conditions noted are these: SW-620, 72 h, incubated 3 days, 0.3 nM~10 μM, 0.1% DMSO. As for the experimental part:
as §1

The test system of experiment [3] is human colon cancer HT-29 cells. The experiment can be described thus: Cell Titre Glo luminescent cell viability assay, HT-29. The conditions noted are these: 72 h, incubated 3 days, 0.3 nM~10 μM, 0.1% DMSO. As for the experimental part:
as §1

Experiment [4] relates to human prostate cancer PC-3 cells. The experiment can be described thus: Cell Titre Glo luminescent cell viability assay, PC-3. The conditions noted are these: 72 h, incubated 3 days, 0.3 nM~10 μM, 0.1% DMSO. As for the experimental part: as §1

As a reminder, the IC50 is the concentration at which inhibition is half-maximal. Higher therefore signals weaker potency in that assay. With `CC[C@@]1(O)C(=O)OCc2c1cc1n(c2=O)Cc2cc3cc(OC)ncc3nc2-1` [Example 1, (S)-4-ethyl-4-hydroxy-9-methoxy-1H-pyrano[3′,4′:6,7]indolizino[1,2-b][1,7]naphthyridine-3,14(4H,12H)-dione], the IC50 in experiment [1] was under 0.1 µM; in experiment [2] it was under 0.1 µM; in experiment [3], under 0.1 µM; in experiment [4], under 0.5 µM.
In the case of `CC[C@@]1(O)C(=O)OCc2c1cc1n(c2=O)Cc2cc3c(OC)nccc3nc2-1` [Example 2, (S)-7-ethyl-7-hydroxy-1-methoxy-7H-pyrano[3′,4′:6,7]indolizino[1,2-b][1,6]naphthyridine-8,11(10H,13H)-dione], the IC50 was over 1 µM in experiment [1], under 0.5 µM in experiment [2], under 1 µM in experiment [3] and over 1 µM in experiment [4].
`CC[C@@]1(O)C(=O)OCc2c1cc1n(c2=O)Cc2cc3c(O)nccc3nc2-1` [Example 3, (S)-7-ethyl-1,7-dihydroxy-7H-pyrano[3′,4′:6,7]indolizino[1,2-b][1,6]naphthyridine-8,11(10H,13H)-dione]: the IC50 was under 0.5 µM in experiment [1], under 0.5 µM in experiment [2], under 1 µM in experiment [3] and over 1 µM in experiment [4].
As for `CC[C@@]1(O)C(=O)OCc2c1cc1n(c2=O)Cc2cc3c(N(C)C)nccc3nc2-1` [Example 4, (S)-1-(dimethylamino)-7-ethyl-7-hydroxy-7H-pyrano[3′,4′:6,7]indolizino[1,2-b][1,6]naphthyridine-8,11(10H,13H)-dione], the IC50 is under 0.1 µM in experiment [1], under 0.1 µM in experiment [2], over 1 µM in experiment [3] and under 0.5 µM in experiment [4].
As for `CC[C@@]1(O)C(=O)OCc2c1cc1n(c2=O)Cc2cc3nc(OC)ccc3nc2-1` [Example 5, (S)-7-ethyl-7-hydroxy-2-methoxy-7H-pyrano[3′,4′:6,7]indolizino[1,2-b][1,5]naphthyridine-8,11(10H,13H)-dione], the 50% inhibitory concentration (IC50) in experiment [1] was under 0.1 µM; in experiment [2], under 0.1 µM; in experiment [3], under 0.5 µM; in experiment [4], under 0.5 µM.
Turning to `CC[C@@]1(O)C(=O)OCc2c1cc1n(c2=O)Cc2cc3cc4c(cc3nc2-1)CCO4` [Example 6, (S)-7-ethyl-7-hydroxy-10,13-dihydro-2H-furo[2,3-g]pyrano[3′,4′:6,7]indolizino [1,2-b]quinoline-8,11(3H,7H)-dione], the IC50 is over 1 µM in experiment [1], under 0.5 µM in experiment [2], under 1 µM in experiment [3] and over 1 µM in experiment [4].
Regarding `CC[C@@]1(O)C(=O)OCc2c1cc1n(c2=O)Cc2cc3cc(OC)c(O)cc3nc2-1` [Example 7, (S)-4-ethyl-4,8-dihydroxy-9-methoxy-1H-pyrano[3′,4′:6,7]indolizino[1,2-b]quinoline-3,14(4H,12H)-dione], the concentration for half-maximal inhibition (IC50) in experiment [1], in experiment [2], in experiment [3] and in experiment [4] was under 0.1 µM in each case.
As to `CC[C@@]1(O)C(=O)OCc2c1cc1n(c2=O)Cc2cc3cc(O)c(F)cc3nc2-1` [Example 8, (S)-4-ethyl-8-fluoro-4,9-dihydroxy-1H-pyrano[3′,4′:6,7]indolizino[1,2-b]quinoline-3,14(4H,12H)-dione], the IC50 in experiment [1], in experiment [2], in experiment [3] and in experiment [4] was under 0.1 µM in each case.
Regarding `CC[C@@]1(O)C(=O)OCc2c1cc1n(c2=O)Cc2cc3cc(OC)c(F)cc3nc2-1` [Example 9, (S)-4-ethyl-8-fluoro-4-hydroxy-9-methoxy-1H-pyrano[3′,4′:6,7]indolizino[1,2-b]quinoline-3,14(4H,12H)-dione], the half-inhibitory concentration (IC50) in experiment [1], in experiment [2], in experiment [3] and in experiment [4] was under 0.1 µM throughout.
As for `CC[C@@]1(O)C(=O)OCc2c1cc1n(c2=O)Cc2cc3ccc(OC)c(O)c3nc2-1` [Example 10, (S)-4-ethyl-4,7-dihydroxy-8-methoxy-1H-pyrano[3′,4′:6,7]indolizino[1,2-b]quinoline-3,14(4H,12H)-dione], the IC50 is under 0.5 µM in experiment [1], under 0.1 µM in experiment [2], under 0.5 µM in experiment [3] and under 0.5 µM in experiment [4].
Take `CC[C@@]1(O)C(=O)OCc2c1cc1n(c2=O)Cc2c-1nc1cc(F)c(OC)cc1c2N` [Example 11, (S)-11-amino-4-ethyl-8-fluoro-4-hydroxy-9-methoxy-1H-pyrano[3′,4′:6,7]indolizino[1,2-b]quinoline-3,14(4H,12H)-dione]: the IC50 in experiment [1] was under 0.1 µM; in experiment [2], under 0.1 µM; in experiment [3] it was under 0.5 µM; in experiment [4] it was under 0.1 µM.
On to `CC[C@@]1(O)C(=O)OCc2c1cc1n(c2=O)Cc2c-1nc1cc(F)c(OC)cc1c2C` [Example 12, (S)-4-ethyl-8-fluoro-4-hydroxy-9-methoxy-11-methyl-1H-pyrano[3′,4′:6,7]indolizino[1,2-b]quinoline-3,14(4H,12H)-dione], for which the IC50 in experiment [1], in experiment [2], in experiment [3] and in experiment [4] was under 0.1 µM throughout.
